From patent US20220387370A1, “METHODS OF REDUCING NEUROLOGICAL DAMAGE IN WILSON DISEASE PATIENTS” (priority 2019, published 2022)
Entries after “also recorded” stand apart in the source; their conditions may differ.

Tests used:
EA.hy926 cells [1] = experiment: Cellular copper content (ICP-OES), EA.hy926; assay type: cell-based, human
Source text: (§1) Afterwards, cells were trypsinized and counted.

U87MG cells [2] = experiment: High-resolution respirometry, U87MG; assay type: cell-based, human; conditions: Cu-albumin-treated, vs Cu-albumin alone
Procedure: Oxygen consumption was assessed by high-resolution respirometry (HRR) using the Oxygraph-2k and DatLab 7.0 (Oroboros Instruments GmbH, Innsbruck, Austria) as described previously (Pesta, D. and E. Gnaiger, Methods Mol Biol, 2012. 810: p. 25-58). Per chamber, 1.5-2×10^6 living cells were supplied in 2 mL of MiR05 buffer (0.5 mM EGTA, 3 mM MgCl2, 60 mM lactobionic acid, 20 mM taurine, 10 mM KH2PO4, 20 mM HEPES, 110 mM sucrose, 1 g/L albumin, pH 7.1) and routine respiration was measured. Addition of 2.5 μM oligomycin (inhibitor of the FOF1-ATPase) enabled the measurement of leak respiration and stepwise addition of CCCP (1 μL steps from 1 mM stock solution) allowed the determination of the maximum oxygen flux and thereby the capacity of the electron transport system (ETS). The oxygen flux was baseline-corrected for non-mitochondrial oxygen consuming processes (ROX) by the addition of 2.5 μM of the complex III-inhibitor antimycin A.

patients with WD = conditions: cited from earlier work
[3] = system: HepG2, EA.hy926, U87MG and SHSY5Y cells; conditions: 750 μM copper, 250 μM albumin, 750 μM chelator
Procedure: 2×10^4 cells were seeded into each well of a 96-well plate and incubated overnight. […] Cell toxicity was either determined by CellTiter-Glo® assay (Promega, Madison, USA) or Trypan blue exclusion test.
Afterwards, cells were trypsinized and counted. Cell viability was determined by Trypan blue exclusion test.

PBCEC monolayers = experiment: Copper in the basolateral compartment of the Transwell PBCEC model (ICP-MS/MS); assay type: cell-based, porcine; conditions: 250 μM copper and 83.3 μM albumin, 250 μM chelator, after 48 h
Source text: For transepithelial resistance (TEER) experiments (Srinivasan, B., et al., J Lab Autom, 2015. 20(2): p. 107-26), cryopreserved primary porcine brain capillary endothelial cells (PBCECs) were thawed and seeded either on rat tail collagen-coated 96-well plates for cytotoxicity testing using the Neutral red assay (Repetto, G., A. del Peso, and J. L. Zurita, Nat Protoc, 2008. 3(7): p. 1125-31) or Transwell® inserts (area: 1.12 cm^2, pore size: 0.4 μm: Corning, N.Y., USA) for barrier integrity studies. Cells were cultured for 48 hours in Earle's Medium 199 supplemented with 10% FCS, 50 U penicillin/mL, 50 μg/mL streptomycin, 100 μg/mL gentamycin and 0.7 mM I-glutamine and maintained at 37° C. in a humidified atmosphere with 5% CO2. […] TEER and capacitance values were continuously monitored over 48 h using a CellZscope device (nanoAnalytics, Münster, Germany). Only PBCEC monolayers with initial TEER values >600Ωcm^2 and capacitance values between 0.45 and 0.6 μF/cm^2 were used for permeability studies (Bornhorst, J., et al., J Biol Chem, 2012. 287(21): p. 17140-51). The barrier integrity was calculated by normalizing the TEER values to the respective start values.

[4] = target: Cu-albumin complex (bovine serum albumin) (Bos taurus, UniProt P02769); conditions: 750 μM copper, 250 μM albumin, molar ratio Cu-albumin-chelator 3:1:3
Procedure: 10 mg of fatty acid free bovine serum albumin (subsequently referred to as albumin, Carl Roth, Karlsruhe, Germany) were resuspended in 10 mM Tris-HCl buffer (pH 7.4) and mixed with 45 μL of 10 mM copper chloride. […] Briefly, 50 μL of each fraction were mixed with 10 μL 0.2% NQS, 10 μL of 0.2 M sodium phosphate buffer (pH 12.0) and 30 μL ddH2O in a clear 96-well plate. The samples were incubated for 20 min and absorbance was measured at 452 nm.

Atp7b^−/− rats = experiment: Chelator treatment of WD rats: copper in serum, urine and feces (ICP-OES); assay type: in vivo, rat
Procedure: Control Atp7b^+/- and WD Atp7b^-/- rats were fed ad libitum with normal chow (1314; 13.89 mg Cu/kg; Altromin Spezialfutter GmbH, […], Germany) and tap water. All rats were healthy at treatment start and presented no signs of acute liver damage (serum AST <200 U/L and serum bilirubin <0.5 mg/dl). […] Untreated Atp7b^+/- and Atp7b^-/- rats served as controls. Urine and feces were collected at 24-hour intervals for which rats were housed individually in metabolic cages for 4 days. After a two-day resting period off treatment in normal cages and group housing, rats were sacrificed for serum collection.

EA.hy926 cells [5] = experiment: Cu-albumin cell toxicity, CellTiter-Glo, EA.hy926; assay type: cell-based, human
Procedure: (§2) SHSY5Y (human neuroblastoma), U87MG (human astrocytoma), EA.hy926 (human endothelium) and HepG2 (human hepatocellular carcinoma) cells were from ATCC (Wesel, Germany) and were cultured in Dulbecco's Modified Eagle Medium (DMEM) supplemented with 10% FCS (Biochrom, Berlin, Germany) and 1% antibiotic-antimycotic (Life Technologies, Carlsbad, USA). All cells were maintained at 37° C. in a humidified atmosphere with 5% CO2.

[6] = system: HepG2, EA.hy926, U87MG and SHSY5Y cells; experiment: Toxicity of the chelator itself in a copper-free setting, CellTiter-Glo; conditions: without external Cu-albumin addition
Procedure: as §2

SHSY5Y cells = experiment: Cellular copper content (ICP-OES), SHSY5Y; assay type: cell-based, human; conditions: 750 μM copper, 250 μM albumin, 750 μM chelator, vs Cu-albumin alone
Source text: as §1

[7] = system: HepG2, EA.hy926, U87MG and SHSY5Y cells; experiment: Cu-albumin cell toxicity, CellTiter-Glo, all investigated cell lines; assay type: cell-based, human; conditions: 750 μM chelator, 250 μM albumin, copper 250 to 2500 μM, 24 h
Procedure: as §2

HepG2 cells = experiment: Trypan blue-assessed cell viability under Cu-albumin, HepG2; assay type: cell-based, human; conditions: 750 μM copper, 250 μM albumin, 750 μM chelator
Source text: as §1

U87MG cells [8] = conditions: 750 μM chelator
Procedure: as §2

Chain of Cu-albumin complex (bovine serum albumin) (P02769 25-607, one chain of several): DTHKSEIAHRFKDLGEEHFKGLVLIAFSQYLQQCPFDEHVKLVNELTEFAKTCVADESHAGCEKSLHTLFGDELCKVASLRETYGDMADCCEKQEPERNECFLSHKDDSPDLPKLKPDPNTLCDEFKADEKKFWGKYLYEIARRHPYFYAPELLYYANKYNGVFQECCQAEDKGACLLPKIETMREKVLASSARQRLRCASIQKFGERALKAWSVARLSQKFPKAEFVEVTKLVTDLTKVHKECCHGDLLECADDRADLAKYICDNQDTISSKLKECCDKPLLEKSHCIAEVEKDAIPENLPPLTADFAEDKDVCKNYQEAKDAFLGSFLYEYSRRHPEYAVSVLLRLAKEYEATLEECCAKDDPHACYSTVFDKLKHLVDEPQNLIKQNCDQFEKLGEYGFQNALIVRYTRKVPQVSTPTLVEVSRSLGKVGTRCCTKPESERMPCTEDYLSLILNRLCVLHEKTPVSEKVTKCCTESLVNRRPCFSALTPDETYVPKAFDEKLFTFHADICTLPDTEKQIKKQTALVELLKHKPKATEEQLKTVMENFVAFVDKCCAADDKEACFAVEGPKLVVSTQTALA

SMILES: C[N+](C)(C)CCO.C[N+](C)(C)CCO.[SH-].[SH-].[S]=[Mo]=[S] [ALXN1840, bis-choline tetrathiomolybdate]
- cellular copper content (EA.hy926 cells [1]; EA.hy926, 750 μM copper, 250 μM albumin, 750 μM chelator, vs Cu-albumin alone): significantly decreased the copper content; also recorded: (significantly) lower copper content
- cellular copper content (EA.hy926 cells [1]; EA.hy926 cells subjected to respirometry (FIG. 6A), non-toxic Cu-albumin setting): significantly lower
- respiratory control ratio E/L (ETS to leak respiration) (U87MG cells [2]): tendentiously; also recorded: less pronounced
- reduction of mean serum non-ceruloplasmin-bound Cu (NCC) (patients with WD; at Week 24 compared with baseline, 28 patients with WD): 72%
- patients with reversible liver function test elevations (patients with WD; mild to moderate, asymptomatic, normalized with dose reduction or interruption): 39%
- tolerability (patients with WD; most AEs mild (Grade 1) to moderate (Grade 2)): generally well-tolerated
- paradoxical neurological worsening (patients with WD; upon treatment initiation): No paradoxical neurological worsening was observed
- Trypan blue-assessed cell viability / copper-related cell toxicity [3]: cellular viability was significantly maintained; also recorded: protected all cell lines
- copper in the basolateral compartment (copper influx) (PBCEC monolayers): fully avoided; also recorded: significantly lower amount of copper
- distribution of copper, albumin and chelator over gel filtration fractions [4]: one prominent gel filtration peak appeared; also recorded: albumin, molybdenum and copper were present in the same fractions
- fecal copper excretion (Atp7b^−/− rats; during treatment): unchanged
- urinary copper excretion (Atp7b^−/− rats; during treatment, urine collected over 24 h): lack of urinal copper excretion
- serum copper levels (Atp7b^−/− rats; i.p. once daily for 4 consecutive days (ALXN1840 2.5 mg/kg bw, DPA 100 mg/kg bw), serum at sacrifice after resting period): significantly increased; also recorded: increased serum copper levels
- net copper excretion (urine and feces) (Atp7b^−/− rats; observation period of 96 hours): no profoundly elevated net copper excretion
- CellTiterGlo-assessed cell viability / Cu-albumin toxicity (EA.hy926 cells [5]; EA.hy926, 750 μM chelator): protected
- CellTiterGlo-assessed cell viability / Cu-albumin toxicity (EA.hy926 cells [5]; EA.hy926, low dose of chelator (250 μM)): partially rescued
- CellTiterGlo-assessed cell viability with chelator alone [6]: becomes toxic at elevated concentrations; also recorded: dose-dependent reduction
- cellular copper content (SHSY5Y cells): this effect was not present
- CellTiterGlo-assessed cell viability / Cu-albumin toxicity [7]: fully avoided such toxicity up to a Cu-albumin ratio of 4:1
- Trypan blue-assessed cell viability / copper-related cell toxicity (HepG2 cells): rescued HepG2 cells
- CellTiterGlo-assessed cell viability / Cu-albumin toxicity (U87MG cells [8]): protected
